The source of these data is article PMC7048748, “Anxiolytic Drug FGIN-1-27 Ameliorates Autoimmunity by Metabolic Reprogramming of Pathogenic Th17 Cells” (Scientific Reports, 2020).

The target of one data set is T1, TSPO (Rattus norvegicus, UniProt P16257).
T1 construct: Eurofins Cerep (France), contract assay
As to the kind of experiment: TSPO (BZDp) antagonist radioligand displacement assay. Type of data set: binding. The text has this:
We explored the mechanism of action for FGIN-1-27 and whether the effect of FGIN-1-27 on Th17 differentiation was driven by TSPO, the reported target of this compound. We used two approaches: first, we investigated the correlation between FGIN-1-27 induced IL-17 down-regulation and binding to TSPO. For the binding studies, we used a biochemical radio ligand displacement assay with the well-characterized TSPO ligand PK-11195 as a tracer. […] Secondly, we purified CD4^+ T cells from spleen and lymph nodes of mice that lacked global expression of TSPO (TSPO KO mice)[19]. We added FGIN-1-27 to the cultures of CD4^+ T cells from controls or TSPO KO mice that were induced towards the Th17 differentiation program.
FGIN-1-27 were tested at 8 doses (0.3–40 µM) in the TSPO (BZDp) antagonist radioligand displacement assay at Eurofins Cerep (France). Radiolabeled PK11195 was used as a control and TSPO binding was calculated as a percent inhibition of control specific binding using the formula 100-(measured specific binding*100/control specific binding).
(h) Dose response plot showing effect of FGIN-1-27 on intracellular IL-17 and viability in pre- differentiated Th17 cells after re- stimulation. Data is normalized against […]
(i) Mean clinical scores of mice following active induction of EAE. Mice were injected i/p twice daily with vehicle or FGIN-1-27 for 7 days. Data are pooled from 5 mice/group. […]

In a further data set the test system is eIF2α. Nature of the data set: Western blot for phosphorylated eIF2α. Type of data set: cell-based, mouse. To be noted: 24 hours, compared to DMSO controls. As to the method:
(a) MA-plot showing shrunken log2 fold-changes of detected genes between the DMSO and FGIN-1-27 RNA-seq samples, ranked by average normalized count. Red dots indicate differentially expressed genes at adjusted p-value <0.05. (b) Transcript levels for the indicated genes after 24 hours of treatment with DMSO or FGIN-1-27 quantified by qPCR. The error bars represent SD. (c) Western blot analysis for phosphorylated eIF2α and ATF4 24 hours after treatment with DMSO or FGIN-1-27 (5 and 10 µM). Data are representative of 3 independent experiments. (d) Amino acids in Th17 cells measured 72 hours after treatment with FGIN-1-27. The error bars represent SD. (e) ROS was measured using cell permeant reagent 2′,7′ –dichlorofluorescin diacetate (DCFDA) at 24 hours following treatment with FGIN-1-27. Filled grey histogram-DMSO, dotted line-FGIN-1-27 (10 µM) and dashed line indicates FGIN-1-27 (5 µM). […] Data are normalized using DMSO treated cells as 100% and the error bars represent SD.
Cell lysates were prepared by lysis in RIPA buffer containing protease and phosphatase inhibitors and immunoblotting was performed by standard methods.
(a) W estern blot analysis for phosphorylated eIF2α and ATF4 24 hours after treatment
with DMSO or FGIN-1-27 (5 and 10 µM). […]
(a) Indicated sterols were measured in Th17 cells treated with DMSO or FGIN-1-27 for […]
(A western blot detects proteins with antibodies after separation by electrophoresis.)

For data set [1], the system named is S6 ribosomal protein (Ser 235/236) and mTOR (Ser 2448). As to the kind of experiment: Phospho S6 and phospho mTOR staining. The format is cell-based, mouse. The conditions noted are these: 10, 5 and 2.5 µM. Here is the method: For phospho-S6 analyses, cells were cultured for 3 hours in Th17 polarization media on anti-CD3/CD28 coated plates. Cells were then fixed after fixation and permeabilization with a Transcription Factor Staining kit (eBioscience) and stained with anti-phospho-S6 antibody (S235/236, Cell Signaling) and anti-CD4. Dead cells were excluded using Live/Dead stain prior to fixation. For mTOR analyses, anti-phospho-mTOR antibody was used (Ser2448, eBioscience). page 6: […] blot analysis for phosphorylated eIF2α and ATF4 24 hours after treatment with DMSO or FGIN-1-27 (5 and 10 μM). (b) Intracellular phospho S6 ([…]/236) Th17 cells treated with DMSO or FGIN-1-27 […] The black line represents DMSO and the grey filled histogram represent FGIN-1-27 (10μM). The dotted lines (5μ M) and the dashed line represents staining after 2.5μM of FGIN-1-27 treatment. (c) Intracellular phospho mTOR ([…]) Th17 cells treated with DMSO or FGIN-1-27 […] The black line represents DMSO and the grey filled histogram represent FGIN-1-27 (10μM). The dotted lines (5μ M) and the dashed line represents staining after 2.5μM of FGIN-1-27 treatment.

Details of data set [2]: method as in PMID 21119734, PMID 1326631, PMID 29698632. The conditions noted are these: cited from earlier work.

T1 sequence (P16257 whole entry): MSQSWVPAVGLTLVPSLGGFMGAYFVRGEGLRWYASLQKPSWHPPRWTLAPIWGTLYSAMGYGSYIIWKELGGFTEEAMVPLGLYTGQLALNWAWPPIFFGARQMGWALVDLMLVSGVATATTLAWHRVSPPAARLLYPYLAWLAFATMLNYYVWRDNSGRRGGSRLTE

On to `CCCCCCN(CCCCCC)C(=O)Cc1c(-c2ccc(F)cc2)[nH]c2ccccc12` [FGIN-1-27, N, N-di-n-hexyl 2-(4-fluorophenyl) indole-3-acetamide], for which the “displacement of PK-11195” value on TSPO (0.3 µM, lowest validated testing concentration) was “more than 90%”. Also, the “binding to TSPO” value on TSPO (0.3–40 µM) is on record as “high affinity”. In addition, the “increase in eIF2α phosphorylation” value in the data set with eIF2α worked out at 4.5 fold. Also, the “phosphorylation of S6 ribosomal protein (Ser 235/236) and mTOR (Ser 2448)” value in data set [1] is on record as “dose-dependent decrease”. Also, in data set [2], the “crossing of the blood brain barrier” value was “can cross the blood brain barrier”.
